Source: patent US20160264602A1, “MANUFACTURING METHOD OF SILATRANE WITH THIOL GROUP AND PRESERVATION METHOD THEREOF” (NATIONAL CHUNG CHENG UNIVERSITY, priority 2015, published 2016)

Experiments:
[1] = Tests of preserving method: MPS dissolution and self-assembly of gold nanoparticles on MPS-modified glass substrate; type: physicochemical
Method: Performing the tests of three preserving methods that preserve MPS under atmospheric condition, under nitrogen and in organic solvent.
Most silane molecules in general are placed in a brown bottle and stored at 4° C. To investigate the preservation conditions for MPS, the efficiency of the self-assembly reaction of gold nanoparticles on the MPS-modified substrate is used as an indirect indicator. There are two advantages by this approach. First, gold nanoparticles have a characteristic surface plasmon resonance band which can be easily observed in a visible light spectrum and its absorbance is related to the surface coverage of the nanoparticles modified on the surface of the substrate. Second, the peak width of the surface plasmon resonance band is related to the uniformity of the gold nanoparticles distributed on the surface of the substrate. In the present study, gold nanoparticles with 13 nm in diameter are chosen, and the characteristic absorption peak is about 530 nm. After synthesis, purified and dried MPS are separately stored under atmospheric condition at 4° C. and in a brown bottle at room temperature under nitrogen.
If the purified MPS is dissolved in organic solvent and then preserved under atmospheric condition and room temperature without avoiding light, the activity of the sample can be preserved for at least 1 year and 6 months (ex. 1 year and 7 months) (referring to FIG. 3(a)).
The activity of the sample is tested with the self-assembly reaction of gold nanoparticles on the surface of the substrate treated by the sample and then observed by visible light spectroscopy and scanning electron microscopy. The results are shown in FIG. 4(a) and FIG. 4(b) wherein, all experiments are performed by immersing the substrate in a methanol solution of MPS and then modifying gold nanoparticles on the treated substrate for 30 minutes.

[2] = Solubility of MPS in DMSO as time passes after manufacture; type: physicochemical
Method: No matter what kind of foregoing method, the product must be dissolved in organic solvent within 30 minutes. The solubility of MPS in aqueous phase or organic phase solvents will decrease as time passes.

dissolution of preserved sample ([1]; purified and dried MPS in brown bottle at room temperature under nitrogen, after 5 weeks): cannot be dissolved
dissolution of preserved sample ([1]; purified and dried MPS under atmospheric condition at 4° C., after 3 weeks): cannot be dissolved in any solvent
time for which MPS can be preserved ([1]; traditional nitrogen preservation method under dark condition): about two
solubility of MPS in dimethyl sulfoxide (DMSO) ([2]; after 1 week): about 40%
solubility of MPS in dimethyl sulfoxide (DMSO) ([2]; after 30 minutes): about 99%
solubility of MPS in dimethyl sulfoxide (DMSO) ([2]; after 1 day): about 90%
Structure (SMILES): SCCC[Si]12OCCN(CCO1)CCO2 [MPS, (3-mercaptopropyl)silatrane]
